The values that follow come from ChEMBL document CHEMBL1201862, “PubChem BioAssay data set” (2004).

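48-hour exposure; five concentrations; linearly interpolated endpoints. GI50 = concentration required for 50% inhibition of growth.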 The source made the active and inactive calls. Cut-off read from the data, not from the text of the source: active = GI50 up to about 1.1 µM and inactive = higher. Where a SMILES comes first, the peptide text is derived from it. A value given as a limit tells only on which side of the number the result lay.

Assay in all cases: NCI tumour cell line growth inhibition, 48 h
Assay [1] deals with LOX IMVI.
The subject of assay [2] is BT-549.
In assay [3] the test system is HOP-62.
For assay [4], the system named is SR.
For assay [5], the system named is NCI-H522.
Assay [6] concerns K562.
Assay [7] deals with SK-OV-3.
In assay [8] the test system is PC-3.
Assay [9] has as its system T47D.
In assay [10] the test system is SK-MEL-28.
Assay [11] concerns HCT-15.
Assay [12] relates to SK-MEL-5.
Assay [13] has as its system A549.
The subject of assay [14] is 786-0.
The test system of assay [15] is M14.
Assay [16] concerns RPMI-8226.
Assay [17] concerns KM12.
The test system of assay [18] is COLO 205.
Assay [19] concerns NCI-H23.
Assay [20] has as its system UACC-62.

With `O=C1NC(=O)C(c2c[nH]c3ccccc23)=C1c1cnc[nH]1`, the GI50 was 59 µM (inactive) in assay [1]; 46.3 µM (inactive) in [2]; > 100 µM (inactive) in [3]; 23.6 µM (inactive) in [4]; 56.8 µM (inactive) in assay [5]; 5.61 µM (inactive) in assay [6]. Further, the GI50 in assay [7] was > 100 µM (inactive); in assay [8], > 100 µM (inactive); in assay [9], > 100 µM (inactive); in assay [10], > 100 µM (inactive); in assay [11] it was above 100 µM; in assay [12] it was 22.5 µM (inactive). The GI50 in assay [13] is > 100 µM (inactive); in [14] it was > 100 µM (inactive); in [15], > 100 µM (inactive); in assay [16] it was 49 µM (inactive); in assay [17], 45.2 µM (inactive); in assay [18], 49.5 µM (inactive).
In the case of `C=CCN1C(N)=C(C#N)C(C#N)(C#N)C1CCC` (configuration not stated), the GI50 in [1], in assay [2], in [19], in assay [3], in assay [4] and in assay [5] was > 100 µM (inactive) each time. For the same compound, the GI50 in [6] is > 100 µM (inactive); in assay [7], > 100 µM (inactive); in assay [8], > 100 µM (inactive); in [9], 54.8 µM (inactive); in assay [11], above 100 µM; in assay [12], 81.7 µM (inactive). The GI50 in assay [13], in assay [14], in [15], in assay [20], in assay [16] and in assay [17] was > 100 µM (inactive) in each case. Also, in assay [18], the GI50 was > 100 µM (inactive).
Take `O=c1oc2c(ccc3c(O)cccc32)c2c1CCCC2`: the GI50 in assay [1] is 16.7 µM (inactive); in assay [2], 15.1 µM (inactive); in assay [19], 26.9 µM (inactive); in [3] it was 18.9 µM (inactive); in assay [4], 4.55 µM (inactive); in assay [5] it was 40 µM (inactive). Further, the GI50 is > 100 µM (inactive) in assay [6]; > 100 µM (inactive) in assay [8]; 80.9 µM (inactive) in assay [9]; > 100 µM (inactive) in assay [10]; 47.2 µM (inactive) in [12]; 72.3 µM (inactive) in assay [13]. For the same compound, the GI50 in assay [14] is 33.4 µM (inactive); in assay [15] it was > 100 µM (inactive); in [20], 4.71 µM (inactive); in [16], > 100 µM (inactive); in [17], > 100 µM (inactive); in [18], > 100 µM (inactive).
Turning to `O=C(O)c1cc2c(cc1CC(Cc1ccc3c(c1)CCC3)C(=O)O)CCC2` (configuration not stated), the GI50 in assay [1], in [2], in [19], in assay [3], in [4] and in assay [5] was > 100 µM (inactive) in each case. Also, the GI50 was > 100 µM (inactive) in assay [7]; > 100 µM (inactive) in [8]; > 100 µM (inactive) in assay [9]; > 100 µM (inactive) in [10]; above 100 µM in assay [11]; > 100 µM (inactive) in [12]. In addition, the GI50 in assay [13], in [14], in [15], in [16], in assay [17] and in assay [18] was > 100 µM (inactive) each time.
As to `CSc1ncc2c(n1)-c1ccccc1OC2`, the GI50 in [1] was 37.7 µM (inactive); in [2], 43 µM (inactive); in assay [19], 84.3 µM (inactive); in assay [4], 61 µM (inactive); in [5] it was 44.5 µM (inactive); in assay [7], > 100 µM (inactive). In addition, the GI50 was 56.4 µM (inactive) in [8]; 15.9 µM (inactive) in [9]; 51.2 µM in assay [11]; 53.1 µM (inactive) in assay [12]; 52.2 µM (inactive) in [13]; 72.6 µM (inactive) in assay [14]. The GI50 in assay [15] was 45.4 µM (inactive); in assay [20], 78.2 µM (inactive); in [16], > 100 µM (inactive); in assay [17] it was > 100 µM (inactive); in assay [18] it was 92.3 µM (inactive).
For `O=c1[nH]c2nc(S)nc(S)c2[nH]1`, the GI50 in [1], in assay [2], in assay [19], in [3], in [4] and in assay [5] was > 100 µM (inactive) in each case. In addition, the GI50 in assay [6] is > 100 µM (inactive); in assay [8], > 100 µM (inactive); in assay [9], > 100 µM (inactive); in [10], > 100 µM (inactive); in assay [11] it was above 100 µM; in assay [12], > 100 µM (inactive). Also, the GI50 in assay [13], in assay [14], in [15], in assay [20], in assay [16] and in assay [17] was > 100 µM (inactive) in each case.
For `CCC(C)C(NC(=O)C1CCCN1C(=O)C(CC(C)C)NC(=O)C(CC(C)C)NC(=O)C(N)CC(C)C)C(=O)NC(C(=O)NCC(=O)NC(CC(N)=O)C(=O)NC(CC(C)C)C(=O)NC(CC(C)C)C(=O)NC(CC(C)C)C(N)=O)C(C)C` (configuration not stated) (H-LLLPIVGNLLL-NH2; configuration not given here), the GI50 in assay [1], in assay [2], in assay [19], in [3], in assay [4] and in assay [5] was > 50 µM (inactive) throughout. For the same compound, the GI50 is > 50 µM (inactive) in [7]; > 50 µM (inactive) in assay [8]; > 50 µM (inactive) in assay [9]; > 50 µM (inactive) in assay [10]; above 50 µM in [11]; > 50 µM (inactive) in [12]. Besides, the GI50 in [13], in assay [14], in [15], in [20], in [16] and in assay [17] was > 50 µM (inactive) throughout. Moreover, the GI50 in [18] was > 50 µM (inactive).
For `CC(=O)OC1/C(=C/c2ccc([N+](=O)[O-])cc2)C[C@H]2[C@@H]3CC=C4C[C@@H](OC(C)=O)CC[C@]4(C)[C@H]3CC[C@]12C` (some centres not stated), the GI50 in [1] is > 100 µM (inactive); in assay [2] it was > 100 µM (inactive); in [19], > 100 µM (inactive); in [3], 34.7 µM (inactive); in assay [4], 5.13 µM (inactive); in assay [5], > 91.8 µM (inactive). The GI50 is 41.4 µM (inactive) in [7]; > 100 µM (inactive) in [8]; > 100 µM (inactive) in assay [9]; > 100 µM (inactive) in [10]; above 100 µM in assay [11]; > 100 µM (inactive) in [12]. For the same compound, the GI50 in [13] was > 100 µM (inactive); in assay [14] it was 70.6 µM (inactive); in assay [15] it was > 100 µM (inactive); in [20], > 100 µM (inactive); in assay [16] it was > 71.3 µM (inactive); in assay [17] it was > 100 µM (inactive). The GI50 in [18] was > 54.6 µM (inactive).
`C=C1C(=O)O[C@H]2[C@H]3O[C@@H](C[C@@H]12)[C@](C)(O)CCCC(C)=CCC[C@H]3C`: the GI50 in assay [1] was 14.3 µM (inactive); in [2], 0.457 µM (active); in assay [19] it was 14.5 µM (inactive); in [3] it was 16.7 µM (inactive); in assay [4], 28.1 µM (inactive); in assay [5], 4.36 µM (inactive). The GI50 is 6.37 µM (inactive) in assay [6]; 19 µM (inactive) in [7]; 12.2 µM (inactive) in [8]; 19.1 µM (inactive) in assay [9]; 11.5 µM (inactive) in [10]; 7.35 µM in [11]. In addition, the GI50 in [12] was 10.8 µM (inactive); in [13] it was 16.8 µM (inactive); in assay [14], 54.3 µM (inactive); in [20], 10.2 µM (inactive); in assay [16], 3.17 µM (inactive); in assay [17], 14.1 µM (inactive). Besides, in [18], the GI50 is 3.38 µM (inactive).
As to `Cc1ccc(S(=O)(=O)NC(=O)C2=C(c3ccccc3)[N-]N(C)c3nc4cccc[n+]4nc32)cc1`, the GI50 is 96.4 µM (inactive) in assay [1]; > 100 µM (inactive) in [2]; > 100 µM (inactive) in [19]; > 100 µM (inactive) in assay [4]; 34.4 µM (inactive) in [5]; > 100 µM (inactive) in assay [6]. In addition, the GI50 is > 100 µM (inactive) in assay [8]; 55.1 µM (inactive) in assay [9]; > 100 µM (inactive) in assay [10]; above 100 µM in [11]; 98.9 µM (inactive) in assay [12]; > 100 µM (inactive) in [13]. Moreover, the GI50 was > 100 µM (inactive) in assay [14]; > 100 µM (inactive) in [15]; > 100 µM (inactive) in assay [20]; 45.6 µM (inactive) in [16]; > 100 µM (inactive) in [17]; 23.1 µM (inactive) in assay [18].
For the compound `CCN(CC)CCO/N=C1\CC[C@H]2[C@@H]3CCc4cc(OC)ccc4[C@H]3CC[C@]12C`, the GI50 in assay [1] is 0.789 µM (active); in assay [2], 4.56 µM (inactive); in [19], 5.09 µM (inactive); in assay [3] it was 1.77 µM (inactive); in [4], 1.49 µM (inactive); in assay [5], 2.52 µM (inactive). In addition, the GI50 was 0.685 µM (active) in assay [6]; 2.64 µM (inactive) in [8]; 2.79 µM (inactive) in assay [9]; 0.628 µM (active) in assay [10]; 0.489 µM in [11]; 1.73 µM (inactive) in [12]. Further, the GI50 in assay [13] is 2.84 µM (inactive); in assay [14], 1.59 µM (inactive); in [15], 0.467 µM (active); in [20], 0.82 µM (active); in assay [16], 1.67 µM (inactive); in assay [17], 2.01 µM (inactive). Also, in assay [18], the GI50 is 1.57 µM (inactive).
